From PMC9499506, “TNF-α and IL-1β Modulate Blood-Brain Barrier Permeability and Decrease Amyloid-β Peptide Efflux in a Human Blood-Brain Barrier Model” (International Journal of Molecular Sciences, 2022)

What was measured:
[1] = test system: BLECs; assay: Western immunoblotting of proinflammatory markers (ICAM-1, VCAM-1, NLRP3) in BLECs; format: cell-based, human; conditions: for protein levels of ICAM-1, VCAM-1 and NLRP3 versus untreated BLECs: 10 ng·mL^−1, 24 h
Experimental: Next, as the inflammatory response of endothelial cells is largely dependent on appropriate upregulation of adhesion molecules, such as intercellular adhesion molecule-1 (ICAM-1) and vascular cell adhesion molecule-1 (VCAM-1), and the inflammasome molecule NOD-like receptor family, pyrin domain containing 3 (NLRP3), we evaluated, by Western immunoblotting, the ability of BLECs to respond to these pro-inflammatory stimuli.
Each condition was studied in triplicate.
After 24 h of treatments with or without proinflammatory cytokines, BLECs were washed twice with cold RH buffer and scraped with 70 μL of RIPA 1X lysis buffer (10 mM Tris-Cl (pH 8.0), 1 mM EDTA, 0.5 mM EGTA, 1% Triton X-100, 0.1% sodium deoxycholate, 0.1% SDS, 140 mM NaCl) (Merck Millipore, Burlington, MA, USA) or UT4 lysis buffer (7M Urea, 2M Thiourea, 4% CHAPS), both supplemented with a cocktail of phosphatase and protease inhibitors (1% protease inhibitors cocktail #P8340; 1% phosphatase inhibitors cocktail 1 P2850; 1% phosphatase inhibitors cocktail 2 #P5726; 1% protease inhibitors cocktail #P8340) purchased from Sigma-Aldrich (Lyon, France). Then, a centrifugation at 10,000 rpm for 10 min at 4 °C was achieved to save the supernatant of the lysate. This was later sonicated two times for 5 s on ice. The concentration of the protein lysate was quantified using the Bradford method (#5000006; rad, Munich, Germany). The protein samples were then stored at −20 °C.
20 μg of total protein was mixed with Laemmli 4X (#1610747; Biorad, Munich, Germany) supplemented with β-mercaptoethanol (Sigma-Aldrich, Germany). Depending on the protein target, details of the denaturation and reduction steps of the protein extract are described in Table 3. Then, the protein mixes were electrophoresed using Criterion™ TGX™ (Tris-Glycine eXtended) precast gels (Biorad, Munich, Germany) and subsequently electrotransferred to nitro-cellulose membranes (GE Healthcare, Munich, Germany). Once the previous step was completed, Tris-buffered saline 0.1% Tween 20 (TBST; 20 mM Tris-HCl, pH 8.0, 500 mM NaCl, 0.1% Tween 20) supplemented with 5% skimmed milk was added on membrane to block nonspecific binding sites for 1 h under agitation at RT. Membranes were incubated in the appropriate primary antibodies (as described in Table 3) and incubated at 4 °C overnight, except β-actin (20 min at RT).
The following morning, the membranes were rinsed with TBST three times for 5 min each under agitation, and then incubated with the horseradish peroxidase-conjugated secondary antibody anti-rabbit (1:8000, Dako/Agilent Technologies, Inc., Santa Clara, CA, USA) or secondary antibody anti-mouse (1:5000, Dako/Agilent Technologies, Inc., Santa Clara, CA, USA) for 1 h at RT. […] Quantification of the relative densities of bands was performed with TotalLab TL 100 1D Gel Analysis software (Nonlinear Dynamics, Newcastle, UK). The protein expression normalization was conducted with anti-β-actin. Studies were performed with at least three independent experiments, with at least two Western immunoblottings per experiment.

[2] = test system: BLECs; assay: Immunostaining of tight junction proteins in BLECs (localization, area fraction staining); format: cell-based, human; conditions: 10 ng·mL^−1, 24 h; for BLEC morphology and TJ protein localization: immunofluorescence of ZO-1, occludin, claudin-3, claudin-5
Experimental: After 24 h of treatment with or without proinflammatory cytokines, BLECs were fixed and permeabilized, as described in Table 1. Then, a blocking step was performed with Sea Block Blocking Buffer (#37527 from Thermofisher, Rockford, IL, USA) for 30 min. BLECs were incubated for 1 h with the primary antibody in phosphate buffered saline, calcium-magnesium-free (PBS-CMF; 0.2 g·L^−1 KH2PO4, 8.0 g·L^−1 NaCl, 2.87 g·L^−1 Na2HPO4–12H2O, and 0.2 g·L^−1 KCl) with 2% (v/v) normal goat serum (NGS) at room temperature (RT) against targeted proteins, as described in Table 1.
After three washes with PBS-CMF supplemented with 2% NGS, BLECs were incubated with secondary polyclonal antibody (goat anti-rabbit Alexa 568, A11036, Molecular Probes, Eugene, OR, USA) diluted 1:500 in PBS-CMF supplemented with 2% NGS in the dark for 30 min at RT. Then, ProLong™ Diamond Antifade Mountant with DAPI (#P36962, Invitrogen) was used for nuclei staining and mounting. The stained slides were conserved in the fridge. The staining images were taken using a Leica microscope (DMRD; Leica Microsystems, Wetzlar, Germany) and processed using ImageJ software.
Claudin-3 and claudin-5 area fraction staining were subsequently quantified within the BLECs using ImageJ software. Staining images from the same experiment were taken with the same threshold according to the staining, and could thus be compared with each other. Due to the absence of BLEC delineation, the total fraction area staining for each image was thus quantified and normalized by the number of nuclei. Studies were performed with at least three independent experiments and at least three randomized staining images per experiment containing around 50 BLECs each.

[3] = test system: BLECs; conditions: MTT assay; 10 ng·mL^−1, 24 h, abluminal compartment
Experimental: An MTT assay was performed as a preliminary test to determine their effect on BLEC viability and to validate the chosen concentrations. Dimethyl sulfoxide (DMSO) at 10% (v/v) was used as a positive control of cell toxicity.
After 6 days of coculture, TNF-α or IL-1β were added to the basolateral compartment (brain side) at 10 ng·mL^−1 for 24 h, at 37 °C and 5% CO2, to mimic CNS inflammation condition. Each condition was studied in triplicate.
The standard MTT [3-(4,5-dimethylthiazol-2-yl)-2,5-diphenyltetrazolium bromide] assay (AR1156, Boster Biological Technology, Pleasanton, CA, USA) was performed to determine BLEC viability. Briefly, after coculture treatments, culture medium was removed and replaced with worm Ringer-Hepes (RH; 150 mM NaCl, 5.2 mM KCl, 2.2 mM CaCl2, 0.2 mM MgCl2–6H2O, 6 mM NaHCO3, 5 mM HEPES, 2.8 mM glucose; pH: 7.4) in basolateral compartment and with MTT solution (0.5 mg·mL^−1) in RH at in the opposite compartment for 3 h at 37 °C and 5% CO2. […] Aliquot was sampled in 96-well plate and the optical density (OD) was measured with a microplate reader (Synergy H1, BioTek. Colmar, France) at the wavelength of 570 and 630 nm. The percentage of relative cell viability compared to the control condition was subsequently determined using the following formula: % relative cell viability = ((OD570 − OD630) condition)/((OD570 – OD630)control) × 100.

[4] = both cytokines 10 ng·mL^−1, 24 h, normalized to β-actin
[5] = immunofluorescence, ImageJ, normalized by number of nuclei

| Substance | protein levels of ICAM-1, VCAM-1 and NLRP3 versus untreated BLECs [1] | ICAM-1 protein level higher after TNF-α compared to IL-1β [1, 4] [%] | NLRP3 protein level higher after TNF-α compared to IL-1β [1, 4] [%] | VCAM-1 protein level higher after TNF-α compared to IL-1β [1, 4] [%] | BLEC morphology and TJ protein localization [2] | increase of claudin-5 area fraction staining compared to IL-1β treatment [2, 5] [%] | increase of claudin-5 area fraction staining compared to control condition [2, 5] [%] | claudin-3 area fraction staining, increase compared to IL-1β treatment ([2]; immunofluorescence, ImageJ, normalized by number of nuclei, printed as 'at') [%] | effect on BLEC viability [3] |
| --- | --- | --- | --- | --- | --- | --- | --- | --- | --- |
| tumor necrosis factor-α [TNF-α] | significantly higher | 22.2 | 478.4 | 230.6 | induces a change in BLEC morphology and an increase of claudin-3 and claudin-5 cytoplasmic staining | 162.1 | 161.8 | 129.8 | – |
| interleukin-1β [IL-1β] | significantly higher | – | – | – | did not cause changes in BLEC morphology and TJ protein localization | – | – | – | did not affect BLEC viability |
